Measurements published in patent US5532231A, “Antibacterial agent” (priority 1994, dated 1996).

What was measured:
E. coli ESS [1] = experiment: Bactericidal effect when bound to mouse tissues; format: cell-based, Escherichia coli; conditions: 4 μg TA or 20 μg Focusin, 5 h
Method: Two mice were sacrificed by exposure to ether. The bladder, eyes, intestines, lungs, heart, teeth, liver, spleen and kidneys were removed by dissection. Each experimental set consisted of three test tubes. A piece of each tissue type was placed in each of the three test tubes. The amount of tissue per tube were as follows: bladder 1/3, eye 1/2, intestine 1 cm, lung 1/2, heart 1/3, fang tooth 1/2, liver 1/3, spleen 1/3 and kidney 1/2. One test tube contained a control tissue which was treated only with the solvent used for dissolving the antibacterial agent, usually 50% ethanol. The second and third test tubes contained tissues were treated with 4 μg TA or 20 μg Focusin, respectively.
Following application of the antibacterial agent or the control solution, the tissues were allowed to dry in a hood for 30 mins., and then placed in the test tubes.
One milliliter of sterile saline was then added to each test tube and the tubes were then incubated with shaking (50 rpm) at 37° C. for one hour. The amount of antibacterial agent that was released to the saline was measured following chloroform extraction by the disc filter assay.
The tissues were then transferred to exponentially growing cultures of E. coli ESS in NB at a concentration of 10^5 cells/ml. Incubation was at 37° C. and continued for 5 hours, following which the number of viable cells was checked.

Staphylococcus aureas = experiment: Antimicrobial spectrum, liquid media, viable cell count; format: cell-based, Staphylococcus aureus; conditions: saturating concentrations
Method: (§1) Saturated solutions of TA and Focusin were prepared by adding 1.14 μg TA and 7 μg Focusin to 1 ml LB (final conc. of 1% ethanol). About 10^5 bacteria of various strains were then added. The control was bacteria in the same medium with no antibacterial agents. The bacteria were introduced at 37° C. with shaking at 100 rpm. When the control became turbid, viable cell count was performed on LB agar plates. Growth inhibition is presented as percentage of the no antibiotic control.

E. coli ESS Kan^r [2] = experiment: Paper disc filter antibiotic assay (zone of inhibition); format: cell-based, Escherichia coli; conditions: paper disc
Method: Escherichia coli ESS Kan^r, is a kanamycin resistant strain of E. coli ESS, derived by transducing E. coli ESS with P1:TnV, Kan^r. This strain was used for the standard antibiotic assays.
LB Kan medium was solidified by 1.5% Bacto agar (Difco). For the antibiotic assay, Nutrient Broth agar plates were used. NB medium is 0.8% Nutrient Broth (Difco) containing 0.5% NaCl (Merck). NB was solidified by 1.8% Bacto agar (Difco). The NB plates were overlaid by 3.5 ml NB soft agar (0.9% Bacto agar) mixed with 0.1 ml E. coli ESS Kan^r overnight culture.
(§2) Antibiotic activity against E. coli ESS Kan^r was determined by the paper disc filter assay (Leo et al., 1945). Unknown quantities of antibiotic TA or Focusin, dissolved in ethanol, saline or NB were applied to paper disc filters (6 mm diameter; Schleicher and Schull). After allowing the ethanol to evaporate in the hood for about 15 mins, the dry filters were placed on nutrient broth plates which had been overlaid with an overnight culture of E. coli ESS Kan^r as described above.
(§3) The diameter of the zone of inhibition was recorded after 18 hours in incubation at 37° C. The concentration of the antibacterial agents were determined from a standard inhibition curve prepared with known quantities of TA and Focusin.

Salmonella thyphimurium = experiment: Antimicrobial spectrum, liquid media, viable cell count; format: cell-based; conditions: saturating concentrations
Method: as §1

Helicobacter pilori = experiment: as above; format: cell-based; conditions: saturating concentrations
Method: as §1

Providencia strautii = experiment: as above; format: cell-based; conditions: saturating concentrations
Method: as §1

Proteus vulgaris = experiment: as above; format: cell-based; conditions: saturating concentrations
Method: as §1

Citrobacter diversus = experiment: as above; format: cell-based; conditions: saturating concentrations
Method: as §1

Klebsiella sp = experiment: as above; format: cell-based; conditions: saturating concentrations; hospital strain
Method: as §1

Staphylococcus albus = experiment: as above; format: cell-based
Method: as §1

Klebsiella pneumoniae = experiment: as above; format: cell-based; conditions: saturating concentrations; hospital strain
Method: as §1

Klebsiella Gr47 = experiment: as above; format: cell-based; conditions: saturating concentrations; hospital strain
Method: as §1

Enterobacter = experiment: as above; format: cell-based; conditions: saturating concentrations
Method: as §1

Bacillus subtilis = experiment: as above; format: cell-based; conditions: saturating concentrations
Method: as §1

Erwinia herbicola = experiment: as above; format: cell-based; conditions: saturating concentrations
Method: as §1

Serratia marcescens = experiment: as above; format: cell-based; conditions: saturating concentrations
Method: as §1

Pseudomonas aeruginosa = experiment: as above; format: cell-based; conditions: saturating concentrations
Method: as §1

E. coli ESS Kan^r [3] = experiment: Sensitivity to combined exposure to light and air (remaining activity by paper disc bioassay); format: physicochemical, Escherichia coli
Method: as §2, §3
100 ng of TA and Focusin dissolved in ethanol were applied to paper filters and allowed to dry in a hood for 15 mins. The filters were then exposed to light from a fluorescent lamp in the hood; the distance from the lamp to the filters was approximately 40 cm. The controls were placed in the dark under a plastic box within the hood.
After exposure of the filters to the light for varying periods of time, the remaining activity of the agents was measured by the paper disc bioassay and the results are shown in the following Table 1: […]

Mycobacteria smegmatis = experiment: Antimicrobial spectrum, liquid media, viable cell count; format: cell-based, Mycobacterium smegmatis; conditions: saturating concentrations
Method: as §1

[4] = system: severe gingivitis and plaque; conditions: humans; cited from earlier work
E. coli K-12 = experiment: Antimicrobial spectrum, liquid media, viable cell count; format: cell-based, Escherichia coli; conditions: saturating concentrations
Method: as §1

E. coli ESS [5] = experiment: as above; format: cell-based, Escherichia coli; conditions: saturating concentrations
Method: as §1

[6] = system: Gram-positive and Gram-negative bacteria; conditions: literature; cited from earlier work
[7] = format: physicochemical
Method: Focusin and TA at concentrations of 3 mg/ml were diluted either in ethanol or in saline containing 1% ethanol to yield a final concentration in each case of 30 μg/ml. The solutions were mixed at 37° C. for one hour under shaking, and then were centrifuged at 5000 g for 10 minutes. Several samples were taken from the supernatants of the tubes and were applied on disc filters in order to determine the concentration of the antibacterial agents in the saline and ethanol solutions, by the paper disc bioassay method.

Compound: CCCC1OC(=O)C(C)CC(C)CCCCC(=O)CCCC(CC)C=CC=C(COC)CCC(O)C(O)CC(O)CNC1=O (stereo not drawn) [TA, reference compound]
- Inhibition % by the treated tissue (E. coli ESS [1]; bladder): 100%
- Inhibition % by the treated tissue (E. coli ESS [1]; heart): 100%
- Inhibition % by the treated tissue (E. coli ESS [1]; intestine): 99%
- Inhibition % by the treated tissue (E. coli ESS [1]; kidney): 100%
- Inhibition % by the treated tissue (E. coli ESS [1]; liver): 96%
- Inhibition % by the treated tissue (E. coli ESS [1]; lungs): 100%
- Inhibition % by the treated tissue (E. coli ESS [1]; spleen): 100%
- Inhibition % by the treated tissue (E. coli ESS [1]; teeth): 100%
- killing (Staphylococcus aureas): 100%
- amount giving an inhibition zone of 11 mm (E. coli ESS Kan^r [2]; zone 11 mm): 64 ng
- amount required to obtain a zone of inhibition of about 2 mm (E. coli ESS Kan^r [2]; zone about 2 mm): 7.5 ng
- killing (Salmonella thyphimurium): 60%
- killing (Helicobacter pilori): 100%
- killing (Providencia strautii): 100%
- killing (Proteus vulgaris): 100%
- killing (Citrobacter diversus): 100%
- killing (Klebsiella sp): 100%
- incubation time after which the strain began to show sensitivity (Staphylococcus albus; saturating concentrations): > 46 h
- killing (Staphylococcus albus; saturating concentrations (TA)): 83%
- killing (Klebsiella pneumoniae): 100%
- killing (Klebsiella Gr47): 100%
- killing (Enterobacter): 100%
- killing (Bacillus subtilis): 100%
- killing (Erwinia herbicola): 100%
- killing (Serratia marcescens): 100%
- killing (Pseudomonas aeruginosa): 0%
- activity after exposure to light and air (E. coli ESS Kan^r [3]; 0 hours): 100%
- activity after exposure to light and air (E. coli ESS Kan^r [3]; 1 hour): 70%
- activity after exposure to light and air (E. coli ESS Kan^r [3]; 4 hours): 63%
- activity after exposure to light and air (E. coli ESS Kan^r [3]; 6 hours): 26%
- activity after exposure to light and air (E. coli ESS Kan^r [3]; 8 hours): 21%
- activity after exposure to light and air (E. coli ESS Kan^r [3]; 20 hours): 19%
- degradation at combined exposure to light and air (E. coli ESS Kan^r [3]; after 20 hours): 81%
- degradation at combined exposure to light and air (E. coli ESS Kan^r [3]; after one hour, 60 min): 30%
- killing (Mycobacteria smegmatis): 0%
- effect on gingivitis and plaque (in words) [4]: to treat severe gingivitis and to reduce plaque in humans
- killing (E. coli K-12): 100%
- killing (E. coli ESS [5]): 100%
- growth inhibition (in words) [6]: capable of inhibiting growth of a variety of Gram-positive and Gram-negative bacteria
- mode of growth inhibition (in words) [6]: lysis of growing bacteria as a result of blocking of cell wall synthesis
- solubility in ethanol [7]: completely soluble
- solubility in saline ([7]; saline with 1% ethanol, 1 h): about 1.14 μg/ml
